Measured values: ChEMBL document CHEMBL5058642, “Data for DCP probe TP-051” (2022)

Key:
[1] = molecular target: Beta-1 adrenergic receptor (Homo sapiens) (UniProt P08588); settings: Compound concentration 10.0 uM
[2] = molecular target: D(1A) dopamine receptor (Homo sapiens) (UniProt P21728); settings: Compound concentration 10.0 uM
Homo sapiens [3] = species: Homo sapiens; assay: Prostanoid, Thromboxane A2 (TP) Eurofins-Panlabs radioligand binding assay; design: ligand concentration 5 nM, non-specific ligand with concentration 1 µM SQ-29548, incubation time 30 min, incubation temperature 25 °C; settings: Compound concentration 10.0 uM
[4] = molecular target: Estrogen receptor (Homo sapiens) (UniProt P03372); settings: Compound concentration 10.0 uM
Estrogen receptor (Homo sapiens), sequence (P03372 whole entry): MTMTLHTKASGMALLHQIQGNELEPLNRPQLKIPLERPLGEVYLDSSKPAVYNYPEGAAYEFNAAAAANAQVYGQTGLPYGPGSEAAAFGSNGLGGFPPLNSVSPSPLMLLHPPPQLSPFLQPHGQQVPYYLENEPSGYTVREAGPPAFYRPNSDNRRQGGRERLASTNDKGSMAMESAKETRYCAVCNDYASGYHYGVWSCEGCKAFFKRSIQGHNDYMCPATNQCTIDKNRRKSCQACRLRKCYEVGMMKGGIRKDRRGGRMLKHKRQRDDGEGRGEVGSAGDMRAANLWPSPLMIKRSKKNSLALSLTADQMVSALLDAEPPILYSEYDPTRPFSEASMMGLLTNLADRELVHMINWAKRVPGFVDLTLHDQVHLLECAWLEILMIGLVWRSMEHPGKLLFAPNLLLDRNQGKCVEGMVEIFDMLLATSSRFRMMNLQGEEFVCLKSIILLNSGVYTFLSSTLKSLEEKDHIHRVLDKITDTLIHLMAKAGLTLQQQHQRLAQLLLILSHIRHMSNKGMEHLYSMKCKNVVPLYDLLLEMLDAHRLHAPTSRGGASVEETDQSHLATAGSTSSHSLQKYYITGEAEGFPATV

[5] = molecular target: Gamma-aminobutyric acid type B receptor subunit 1 (Homo sapiens) (UniProt Q9UBS5); assay: GABAB1B Eurofins-Panlabs radioligand binding assay; settings: Compound concentration 10.0 uM
[6] = molecular target: Muscarinic acetylcholine receptor M3 (Homo sapiens) (UniProt P20309); assay: Muscarinic M3 Eurofins-Panlabs radioligand binding assay; settings: Compound concentration 10.0 uM
Muscarinic acetylcholine receptor M3 (Homo sapiens), sequence (P20309 whole entry, looked up): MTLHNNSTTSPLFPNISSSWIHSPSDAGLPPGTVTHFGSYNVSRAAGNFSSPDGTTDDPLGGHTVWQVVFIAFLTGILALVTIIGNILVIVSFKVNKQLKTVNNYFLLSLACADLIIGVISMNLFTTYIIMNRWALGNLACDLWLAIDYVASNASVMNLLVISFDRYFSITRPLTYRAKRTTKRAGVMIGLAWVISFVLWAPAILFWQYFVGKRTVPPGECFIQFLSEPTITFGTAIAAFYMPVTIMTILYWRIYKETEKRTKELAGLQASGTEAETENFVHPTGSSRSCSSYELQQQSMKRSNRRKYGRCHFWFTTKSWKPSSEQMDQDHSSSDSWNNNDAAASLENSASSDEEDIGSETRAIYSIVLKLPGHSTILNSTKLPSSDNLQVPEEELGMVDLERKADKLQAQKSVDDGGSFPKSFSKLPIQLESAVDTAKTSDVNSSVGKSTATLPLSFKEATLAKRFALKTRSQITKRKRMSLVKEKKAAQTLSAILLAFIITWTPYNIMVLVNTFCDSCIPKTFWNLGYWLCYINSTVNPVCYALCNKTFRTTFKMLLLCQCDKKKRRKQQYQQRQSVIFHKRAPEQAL

[7] = molecular target: Histamine H3 receptor (Homo sapiens) (UniProt Q9Y5N1); settings: Compound concentration 10.0 uM
[8] = molecular target: Glucocorticoid receptor (Homo sapiens) (UniProt P04150); assay: Glucocorticoid Eurofins-Panlabs radioligand binding assay; settings: Compound concentration 10.0 uM
Rattus norvegicus [9] = species: Rattus norvegicus; assay: Inhibition of Imidazoline I2, Central at 10 µM in the Eurofins-Panlabs radioligand binding assay (Eurofins_assay_241000); design: ligand concentration 2 nM; settings: Compound concentration 10.0 uM
[10] = molecular target: Sigma non-opioid intracellular receptor 1 (Homo sapiens) (UniProt Q99720); settings: Compound concentration 10.0 uM
Sigma non-opioid intracellular receptor 1 (Homo sapiens), sequence (Q99720 whole entry): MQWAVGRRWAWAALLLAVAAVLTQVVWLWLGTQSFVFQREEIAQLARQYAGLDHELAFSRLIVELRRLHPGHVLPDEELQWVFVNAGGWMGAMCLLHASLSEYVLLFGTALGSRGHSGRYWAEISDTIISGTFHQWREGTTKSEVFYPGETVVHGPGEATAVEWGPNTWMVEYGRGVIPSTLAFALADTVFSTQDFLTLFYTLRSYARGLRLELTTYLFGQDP

[11] = molecular target: Histamine H2 receptor (Homo sapiens) (UniProt P25021); settings: Compound concentration 10.0 uM
Histamine H2 receptor (Homo sapiens), sequence (P25021 whole entry): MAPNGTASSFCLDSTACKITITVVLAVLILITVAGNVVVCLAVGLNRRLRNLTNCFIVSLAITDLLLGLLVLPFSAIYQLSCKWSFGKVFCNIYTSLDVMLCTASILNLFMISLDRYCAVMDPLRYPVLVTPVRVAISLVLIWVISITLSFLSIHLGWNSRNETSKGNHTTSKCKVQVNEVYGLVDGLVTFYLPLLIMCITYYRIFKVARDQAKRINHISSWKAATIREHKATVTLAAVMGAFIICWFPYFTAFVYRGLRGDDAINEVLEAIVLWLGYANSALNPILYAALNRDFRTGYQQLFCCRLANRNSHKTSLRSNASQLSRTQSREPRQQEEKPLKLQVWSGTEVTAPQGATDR

[12] = molecular target: Glutamate receptor ionotropic, kainate (Rattus norvegicus) (UniProt P22756+Q01812+P42260+P42264+Q63273); assay: Inhibition of Glutamate, Kainate at 10 µM in the Eurofins-Panlabs radioligand binding assay (Eurofins_assay_232700); settings: Compound concentration 10.0 uM
[13] = molecular target: Substance-K receptor (Homo sapiens) (UniProt P21452); assay: Inhibition of Tachykinin NK2 at 10 µM in the Eurofins-Panlabs radioligand binding assay (Eurofins_assay_255600); design: ligand concentration 0.5 nM; settings: Compound concentration 10.0 uM
Substance-K receptor (Homo sapiens), sequence (P21452 whole entry): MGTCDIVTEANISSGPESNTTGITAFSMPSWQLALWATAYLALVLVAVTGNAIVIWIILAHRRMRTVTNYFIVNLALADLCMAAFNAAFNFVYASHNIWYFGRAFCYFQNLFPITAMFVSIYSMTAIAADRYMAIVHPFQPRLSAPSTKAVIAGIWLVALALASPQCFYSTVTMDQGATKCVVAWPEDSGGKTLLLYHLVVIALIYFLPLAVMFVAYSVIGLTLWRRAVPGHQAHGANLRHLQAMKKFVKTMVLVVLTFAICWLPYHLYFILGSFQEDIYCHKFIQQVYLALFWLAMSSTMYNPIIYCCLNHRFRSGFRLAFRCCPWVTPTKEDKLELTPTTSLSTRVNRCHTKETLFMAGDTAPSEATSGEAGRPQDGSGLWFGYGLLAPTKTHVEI

[14] = molecular target: T1, Sodium-dependent dopamine transporter (Homo sapiens, UniProt Q01959); settings: Compound concentration 10.0 uM
T1 sequence (Q01959 whole entry): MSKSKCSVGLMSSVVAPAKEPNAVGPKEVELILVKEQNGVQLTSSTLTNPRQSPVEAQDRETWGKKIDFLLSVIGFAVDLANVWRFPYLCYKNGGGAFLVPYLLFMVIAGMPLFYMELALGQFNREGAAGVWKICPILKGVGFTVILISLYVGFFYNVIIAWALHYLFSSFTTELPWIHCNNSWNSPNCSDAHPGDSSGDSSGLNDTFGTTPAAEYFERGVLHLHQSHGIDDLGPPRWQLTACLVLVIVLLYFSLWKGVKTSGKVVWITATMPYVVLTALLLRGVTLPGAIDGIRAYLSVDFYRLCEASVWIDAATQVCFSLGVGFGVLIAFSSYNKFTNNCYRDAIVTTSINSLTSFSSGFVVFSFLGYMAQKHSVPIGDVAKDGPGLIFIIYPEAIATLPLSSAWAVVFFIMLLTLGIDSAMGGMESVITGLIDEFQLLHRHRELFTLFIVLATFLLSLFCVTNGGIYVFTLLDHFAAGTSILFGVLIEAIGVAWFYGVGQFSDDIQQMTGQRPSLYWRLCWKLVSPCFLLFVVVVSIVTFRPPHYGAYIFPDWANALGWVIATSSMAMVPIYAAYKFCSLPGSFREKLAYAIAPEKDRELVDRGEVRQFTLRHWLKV

[15] = molecular target: T2, Muscarinic acetylcholine receptor M2 (Homo sapiens) (UniProt P08172); assay: Muscarinic M2 Eurofins-Panlabs radioligand binding assay; settings: Compound concentration 10.0 uM
T2 sequence (whole entry): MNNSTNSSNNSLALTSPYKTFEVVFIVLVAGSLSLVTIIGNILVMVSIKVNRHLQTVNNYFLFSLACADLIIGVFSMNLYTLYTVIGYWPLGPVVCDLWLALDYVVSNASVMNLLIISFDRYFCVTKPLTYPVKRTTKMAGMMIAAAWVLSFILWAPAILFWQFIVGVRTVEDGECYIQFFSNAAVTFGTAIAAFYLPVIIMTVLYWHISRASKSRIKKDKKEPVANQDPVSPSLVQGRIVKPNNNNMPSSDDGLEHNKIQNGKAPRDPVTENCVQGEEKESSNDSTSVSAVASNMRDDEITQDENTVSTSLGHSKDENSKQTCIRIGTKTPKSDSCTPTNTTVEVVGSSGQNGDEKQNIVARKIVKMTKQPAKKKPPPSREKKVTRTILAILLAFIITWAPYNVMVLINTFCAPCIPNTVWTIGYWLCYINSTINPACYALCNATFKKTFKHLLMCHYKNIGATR

[16] = molecular target: 5-hydroxytryptamine receptor 1D (Homo sapiens) (UniProt P28221); settings: Compound concentration 10.0 uM
5-hydroxytryptamine receptor 1D (Homo sapiens), sequence (P28221 whole entry): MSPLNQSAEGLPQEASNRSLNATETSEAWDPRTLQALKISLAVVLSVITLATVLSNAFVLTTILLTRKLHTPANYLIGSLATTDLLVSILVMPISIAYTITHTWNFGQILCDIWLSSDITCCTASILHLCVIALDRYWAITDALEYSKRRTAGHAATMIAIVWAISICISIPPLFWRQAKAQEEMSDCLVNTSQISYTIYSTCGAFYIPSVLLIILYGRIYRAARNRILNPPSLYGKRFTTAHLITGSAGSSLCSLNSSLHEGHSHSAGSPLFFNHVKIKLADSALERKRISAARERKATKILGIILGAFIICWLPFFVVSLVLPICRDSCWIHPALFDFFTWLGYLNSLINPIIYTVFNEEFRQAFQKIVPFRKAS

[17] = molecular target: Mu-type opioid receptor (Homo sapiens) (UniProt P35372); settings: Compound concentration 10.0 uM
[18] = molecular target: 5-hydroxytryptamine receptor 2B (Homo sapiens) (UniProt P41595); settings: Compound concentration 10.0 uM
Rattus norvegicus [19] = species: Rattus norvegicus; assay: Potassium Channel [SKCA] Eurofins-Panlabs radioligand binding assay; design: ligand concentration 0.005 nM; settings: Compound concentration 10.0 uM
[20] = molecular target: Platelet-activating factor receptor (Homo sapiens) (UniProt P25105); assay: Inhibition of Platelet Activating Factor (PAF) at 10 µM in the Eurofins-Panlabs radioligand binding assay (Eurofins_assay_265010); settings: Compound concentration 10.0 uM
[21] = molecular target: Growth hormone secretagogue receptor type 1 (Homo sapiens) (UniProt Q92847); settings: Compound concentration 10.0 uM
Growth hormone secretagogue receptor type 1 (Homo sapiens), sequence (Q92847 whole entry): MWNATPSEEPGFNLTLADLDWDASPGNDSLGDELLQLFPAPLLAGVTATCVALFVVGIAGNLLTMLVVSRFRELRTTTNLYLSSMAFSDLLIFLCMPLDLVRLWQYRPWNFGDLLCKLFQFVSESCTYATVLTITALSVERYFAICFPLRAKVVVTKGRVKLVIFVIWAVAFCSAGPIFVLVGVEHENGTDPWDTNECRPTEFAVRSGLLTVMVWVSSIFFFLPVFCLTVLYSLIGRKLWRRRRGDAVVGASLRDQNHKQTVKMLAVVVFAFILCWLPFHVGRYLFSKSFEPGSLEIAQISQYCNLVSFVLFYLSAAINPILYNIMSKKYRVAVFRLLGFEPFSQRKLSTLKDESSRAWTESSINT

[22] = molecular target: T1, Sodium-dependent dopamine transporter; settings: Compound concentration 10.0 uM; remark: listed apart in the source
Homo sapiens [23] = species: Homo sapiens; assay: Somatostatin sst2 Eurofins-Panlabs radioligand binding assay; design: ligand concentration 0.03 nM; settings: Compound concentration 10.0 uM
[24] = molecular target: T3, D(4) dopamine receptor (Homo sapiens) (UniProt P21917); assay: Inhibition of Dopamine D4.2 at 10 µM in the Eurofins-Panlabs radioligand binding assay (Eurofins_assay_219900); design: ligand concentration 0.5 nM; settings: Compound concentration 10.0 uM
T3 sequence (whole entry): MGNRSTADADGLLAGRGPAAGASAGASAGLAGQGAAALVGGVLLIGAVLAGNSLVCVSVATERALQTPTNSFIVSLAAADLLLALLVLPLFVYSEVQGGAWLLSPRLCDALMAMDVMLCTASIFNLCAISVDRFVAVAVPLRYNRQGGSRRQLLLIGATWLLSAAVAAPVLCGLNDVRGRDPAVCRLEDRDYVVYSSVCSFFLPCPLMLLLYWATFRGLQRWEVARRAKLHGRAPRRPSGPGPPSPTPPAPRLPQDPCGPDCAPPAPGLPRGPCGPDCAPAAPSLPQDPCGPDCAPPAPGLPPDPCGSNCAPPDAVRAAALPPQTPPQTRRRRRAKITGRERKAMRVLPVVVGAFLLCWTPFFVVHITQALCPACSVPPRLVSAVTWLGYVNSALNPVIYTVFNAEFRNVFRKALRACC

[25] = molecular target: Sigma intracellular receptor 2 (Homo sapiens) (UniProt Q5BJF2); settings: Compound concentration 10.0 uM
Sigma intracellular receptor 2 (Homo sapiens), sequence (Q5BJF2 whole entry): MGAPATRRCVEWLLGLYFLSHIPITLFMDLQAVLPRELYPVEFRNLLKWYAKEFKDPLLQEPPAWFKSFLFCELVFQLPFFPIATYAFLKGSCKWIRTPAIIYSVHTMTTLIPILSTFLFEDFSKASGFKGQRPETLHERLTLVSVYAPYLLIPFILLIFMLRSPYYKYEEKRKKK

[26] = molecular target: ATP-sensitive inward rectifier potassium channel 11 (Cricetulus griseus) (UniProt A0A3L7HHE1); assay: Inhibition of Potassium Channel [KATP] at 10 µM in the Eurofins-Panlabs radioligand binding assay (Eurofins_assay_265600); settings: Cricetinae; Compound concentration 10.0 uM
ATP-sensitive inward rectifier potassium channel 11 (Cricetulus griseus), sequence (A0A3L7HHE1 as listed by the source): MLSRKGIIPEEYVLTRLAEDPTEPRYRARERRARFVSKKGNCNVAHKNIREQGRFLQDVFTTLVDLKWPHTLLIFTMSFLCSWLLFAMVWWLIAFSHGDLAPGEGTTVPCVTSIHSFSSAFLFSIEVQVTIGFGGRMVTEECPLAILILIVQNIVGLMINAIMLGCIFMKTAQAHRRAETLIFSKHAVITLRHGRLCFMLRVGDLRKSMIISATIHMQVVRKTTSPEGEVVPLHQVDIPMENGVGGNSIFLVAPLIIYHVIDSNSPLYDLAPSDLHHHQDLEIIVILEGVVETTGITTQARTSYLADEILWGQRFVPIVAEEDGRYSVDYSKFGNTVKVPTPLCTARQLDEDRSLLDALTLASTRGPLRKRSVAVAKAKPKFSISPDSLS

[27] = molecular target: Alpha-2A adrenergic receptor (Homo sapiens) (UniProt P08913); settings: Compound concentration 10.0 uM
Rattus norvegicus [28] = species: Rattus norvegicus; assay: Inhibition of Glutamate, NMDA, Phencyclidine at 10 µM in the Eurofins-Panlabs radioligand binding assay (Eurofins_assay_233000); format: protein-complex assay; settings: Compound concentration 10.0 uM
D(3) dopamine receptor = D(3) dopamine receptor (Homo sapiens, UniProt P35462); settings: Compound concentration 10.0 uM
D(3) dopamine receptor, sequence (P35462 whole entry): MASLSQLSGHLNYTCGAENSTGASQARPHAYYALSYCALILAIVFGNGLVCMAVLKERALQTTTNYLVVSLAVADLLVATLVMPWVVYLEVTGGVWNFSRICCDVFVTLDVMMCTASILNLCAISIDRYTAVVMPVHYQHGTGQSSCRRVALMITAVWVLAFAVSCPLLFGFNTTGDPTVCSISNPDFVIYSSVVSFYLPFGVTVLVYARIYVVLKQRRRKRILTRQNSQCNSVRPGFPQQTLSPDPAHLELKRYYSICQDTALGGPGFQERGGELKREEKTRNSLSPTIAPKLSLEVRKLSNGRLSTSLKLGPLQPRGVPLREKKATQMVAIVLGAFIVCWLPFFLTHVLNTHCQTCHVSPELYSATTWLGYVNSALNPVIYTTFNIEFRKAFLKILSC

[29] = molecular target: Adenosine receptor A2a (Homo sapiens) (UniProt P29274); settings: Compound concentration 10.0 uM
[30] = molecular target: D(2) dopamine receptor (Homo sapiens) (UniProt P14416); settings: Compound concentration 10.0 uM
D(2) dopamine receptor (Homo sapiens), sequence (P14416 whole entry): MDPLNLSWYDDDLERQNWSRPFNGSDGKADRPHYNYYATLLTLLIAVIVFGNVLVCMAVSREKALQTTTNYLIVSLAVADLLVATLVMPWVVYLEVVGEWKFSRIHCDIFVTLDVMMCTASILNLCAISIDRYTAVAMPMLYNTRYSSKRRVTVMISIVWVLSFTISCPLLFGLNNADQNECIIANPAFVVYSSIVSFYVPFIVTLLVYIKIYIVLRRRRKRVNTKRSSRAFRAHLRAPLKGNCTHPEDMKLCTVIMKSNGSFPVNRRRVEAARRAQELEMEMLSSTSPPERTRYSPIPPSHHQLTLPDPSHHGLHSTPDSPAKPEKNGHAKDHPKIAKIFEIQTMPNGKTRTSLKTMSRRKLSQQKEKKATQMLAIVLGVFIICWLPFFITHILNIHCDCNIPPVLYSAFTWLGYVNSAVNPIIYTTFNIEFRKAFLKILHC

[31] = molecular target: Alpha-2B adrenergic receptor (Homo sapiens) (UniProt P18089); settings: Compound concentration 10.0 uM

| SMILES | inhibition [1] [%] | inhibition [2] [%] | inhibition (Homo sapiens [3]) [%] | inhibition [4] [%] | inhibition [5] [%] | inhibition [6] [%] | inhibition [7] [%] | inhibition [8] [%] | inhibition (Rattus norvegicus [9]) [%] | inhibition [10] [%] | inhibition [11] [%] | inhibition [12] [%] | inhibition [13] [%] | inhibition [14] [%] | inhibition [15] [%] | inhibition [16] [%] | inhibition [17] [%] | inhibition [18] [%] | inhibition (Rattus norvegicus [19]) [%] | inhibition [20] [%] | also measured |
| --- | --- | --- | --- | --- | --- | --- | --- | --- | --- | --- | --- | --- | --- | --- | --- | --- | --- | --- | --- | --- | --- |
| Cc1cc(OC2CCS(=O)(=O)CC2)cc(C)c1-c1cccc(COc2ccc(CCC(=O)O)c(F)c2)c1 | 5 | 13.7 | 60 | 3 | 1 | 4 | 21.1 | 0 | -7 | 8.9 | 5.95 | -10 | 29 | 5 | 4 | 35.8 | 5 | 21.5 | -5 | 4 | inhibition [21]: 2%; inhibition [22]: 53.7%; inhibition (Homo sapiens [23]): 5%; inhibition [24]: 9%; inhibition [25]: 19.6%; inhibition [26]: 19%; inhibition [27]: 13%; inhibition (Rattus norvegicus [28]): -4%; inhibition (D(3) dopamine receptor): -7%; inhibition [29]: 5%; inhibition [30]: 16.6%; inhibition [31]: 13.1% |
| Cc1cc(OC2CCS(=O)(=O)CC2)cc(C)c1-c1cccc(COc2ccc(C(=O)O)c(F)c2)c1 | -4 | 20.9 | 28 | 7 | 10 | 1 | 6.7 | 14 | 3 | 16.7 | 7.66 | 8 | 3 | -8 | -3 | 29.5 | 10 | 3 | 1 | 2 | inhibition [21]: -1%; inhibition [22]: 42.2%; inhibition (Homo sapiens [23]): -6%; inhibition [24]: 6%; inhibition [25]: 1.49%; inhibition [26]: -3%; inhibition [27]: 13.1%; inhibition (Rattus norvegicus [28]): 5%; inhibition (D(3) dopamine receptor): 4%; inhibition [29]: 10%; inhibition [30]: 8.6%; inhibition [31]: -0.21% |
